# Data published in US20120115871A1, “METHOD OF TREATMENT OF DEPRESSION” (Supemus Pharmaceuticals, Inc, priority 2009, published 2012).
# What was measured:
# [1] = biological target: noradrenergic reuptake transporters (Homo sapiens, UniProt P23975); conditions: Tatsumi et al [1997]; cited from earlier work
# 5-HT1D = 5-HT1D (Rattus norvegicus, UniProt P28565); test: biochemical; conditions: read-out: % Inhib.
# From the text: (§1) Briefly, recombinant 5-HT7 receptors were expressed in a CHO cell line. The receptors were then saturated with a tritiated receptor-specific ligand at concentrations known to be saturating.
# 5-HT6 (h) = 5-HT6 (h) (Homo sapiens, UniProt P50406); test: biochemical; conditions: read-out: % Inhib.
# Chain of 5-HT6 (h) (P50406 whole entry): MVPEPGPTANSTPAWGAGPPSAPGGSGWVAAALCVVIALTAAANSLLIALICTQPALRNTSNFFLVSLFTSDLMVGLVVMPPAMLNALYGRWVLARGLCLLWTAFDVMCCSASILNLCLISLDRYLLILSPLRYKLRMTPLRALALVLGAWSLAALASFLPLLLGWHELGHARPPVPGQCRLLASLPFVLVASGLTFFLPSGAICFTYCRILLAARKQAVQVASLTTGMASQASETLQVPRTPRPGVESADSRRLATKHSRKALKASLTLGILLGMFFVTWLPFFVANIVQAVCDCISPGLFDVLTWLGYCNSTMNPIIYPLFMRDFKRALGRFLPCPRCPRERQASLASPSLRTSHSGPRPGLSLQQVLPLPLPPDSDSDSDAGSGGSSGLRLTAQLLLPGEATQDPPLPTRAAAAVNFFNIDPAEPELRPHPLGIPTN
# From the text: as §1
# 5-HT4e (h) = 5-HT4e (h) (Homo sapiens, UniProt Q13639); test: biochemical; conditions: read-out: % Inhib.
# Chain of 5-HT4e (h) (Q13639 1-378 isoform Q13639-5): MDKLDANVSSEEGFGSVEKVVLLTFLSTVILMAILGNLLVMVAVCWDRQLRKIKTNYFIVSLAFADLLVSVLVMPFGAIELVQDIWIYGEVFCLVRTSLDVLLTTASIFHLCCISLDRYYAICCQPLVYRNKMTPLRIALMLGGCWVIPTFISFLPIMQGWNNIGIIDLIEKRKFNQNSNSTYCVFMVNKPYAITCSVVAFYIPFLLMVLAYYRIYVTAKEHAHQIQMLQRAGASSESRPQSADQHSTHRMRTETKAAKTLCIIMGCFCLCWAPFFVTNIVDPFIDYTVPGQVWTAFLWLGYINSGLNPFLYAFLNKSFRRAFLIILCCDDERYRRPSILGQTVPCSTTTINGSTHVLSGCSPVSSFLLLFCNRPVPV
# From the text: as §1
# 5-HT5A (h) = 5-HT5A (h) (Homo sapiens, UniProt P47898); test: biochemical; conditions: read-out: % Inhib.
# Chain of 5-HT5A (h) (P47898 whole entry): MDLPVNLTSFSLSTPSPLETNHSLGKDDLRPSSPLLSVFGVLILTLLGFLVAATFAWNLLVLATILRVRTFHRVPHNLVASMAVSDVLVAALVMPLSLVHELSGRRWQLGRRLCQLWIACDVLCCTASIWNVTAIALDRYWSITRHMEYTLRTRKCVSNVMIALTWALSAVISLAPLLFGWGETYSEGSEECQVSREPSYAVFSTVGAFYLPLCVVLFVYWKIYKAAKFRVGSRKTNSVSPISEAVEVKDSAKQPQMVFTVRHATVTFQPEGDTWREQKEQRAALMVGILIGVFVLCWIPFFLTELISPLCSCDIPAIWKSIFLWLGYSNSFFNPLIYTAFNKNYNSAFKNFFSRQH
# From the text: as §1
# 5-HT3 (h) = 5-HT3 (h) (Homo sapiens, UniProt P46098); test: biochemical; conditions: read-out: % Inhib.
# Chain of 5-HT3 (h) (P46098 24-478): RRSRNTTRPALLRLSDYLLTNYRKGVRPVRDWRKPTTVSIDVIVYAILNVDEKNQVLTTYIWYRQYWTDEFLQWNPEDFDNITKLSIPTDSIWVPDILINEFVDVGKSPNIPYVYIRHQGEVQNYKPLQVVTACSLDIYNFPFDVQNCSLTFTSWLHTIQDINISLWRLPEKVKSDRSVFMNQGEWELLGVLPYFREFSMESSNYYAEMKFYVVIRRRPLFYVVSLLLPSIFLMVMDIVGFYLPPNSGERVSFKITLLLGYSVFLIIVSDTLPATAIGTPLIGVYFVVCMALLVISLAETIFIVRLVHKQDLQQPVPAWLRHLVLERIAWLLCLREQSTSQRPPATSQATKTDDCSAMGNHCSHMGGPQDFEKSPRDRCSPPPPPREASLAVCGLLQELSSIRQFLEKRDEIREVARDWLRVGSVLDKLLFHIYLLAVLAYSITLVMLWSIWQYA
# From the text: as §1
# [2] = biological target: serotonin reuptake inhibitor (Homo sapiens, UniProt P31645); conditions: very weak activity; Tatsumi et al [1997]; cited from earlier work
# Chain of serotonin reuptake inhibitor (P31645 whole entry): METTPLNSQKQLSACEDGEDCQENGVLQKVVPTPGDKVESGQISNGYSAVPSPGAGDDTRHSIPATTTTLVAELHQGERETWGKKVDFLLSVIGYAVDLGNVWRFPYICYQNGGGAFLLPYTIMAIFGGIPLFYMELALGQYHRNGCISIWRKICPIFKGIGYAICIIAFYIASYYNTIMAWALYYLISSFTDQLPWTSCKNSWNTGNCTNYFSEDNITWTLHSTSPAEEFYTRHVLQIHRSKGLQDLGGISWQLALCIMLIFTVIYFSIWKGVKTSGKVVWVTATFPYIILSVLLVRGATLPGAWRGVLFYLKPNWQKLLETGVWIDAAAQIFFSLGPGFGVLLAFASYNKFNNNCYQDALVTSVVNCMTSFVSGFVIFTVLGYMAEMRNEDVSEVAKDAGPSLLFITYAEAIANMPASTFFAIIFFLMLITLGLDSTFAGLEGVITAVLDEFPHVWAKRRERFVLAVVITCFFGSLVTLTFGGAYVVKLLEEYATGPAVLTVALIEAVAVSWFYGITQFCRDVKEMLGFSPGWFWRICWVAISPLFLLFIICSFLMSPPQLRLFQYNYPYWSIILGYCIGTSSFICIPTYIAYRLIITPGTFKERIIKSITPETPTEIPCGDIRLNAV
# 5-HT7 (h) = 5-HT7 (h) (Homo sapiens, UniProt P34969); conditions: range of concentrations; FIG. 2
# Chain of 5-HT7 (h) (P34969 whole entry): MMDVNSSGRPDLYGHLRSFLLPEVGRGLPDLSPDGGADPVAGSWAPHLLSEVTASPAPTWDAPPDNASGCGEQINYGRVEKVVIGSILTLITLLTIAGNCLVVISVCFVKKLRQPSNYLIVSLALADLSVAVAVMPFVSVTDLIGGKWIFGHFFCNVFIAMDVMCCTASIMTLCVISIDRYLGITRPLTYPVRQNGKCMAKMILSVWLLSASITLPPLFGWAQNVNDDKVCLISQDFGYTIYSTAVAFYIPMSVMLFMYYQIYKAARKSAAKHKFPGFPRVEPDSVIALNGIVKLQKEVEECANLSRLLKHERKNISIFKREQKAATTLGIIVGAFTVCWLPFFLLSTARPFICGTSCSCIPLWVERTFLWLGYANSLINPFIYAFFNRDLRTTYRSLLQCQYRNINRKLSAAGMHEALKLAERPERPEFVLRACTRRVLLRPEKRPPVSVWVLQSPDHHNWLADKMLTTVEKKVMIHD
# Description: The apparent dissociation constants for antagonists Kb were calculated using the modified Cheng Prusoff equation.
# [3] = background statement; cited from earlier work
# Chain of noradrenergic reuptake transporters (P23975 whole entry): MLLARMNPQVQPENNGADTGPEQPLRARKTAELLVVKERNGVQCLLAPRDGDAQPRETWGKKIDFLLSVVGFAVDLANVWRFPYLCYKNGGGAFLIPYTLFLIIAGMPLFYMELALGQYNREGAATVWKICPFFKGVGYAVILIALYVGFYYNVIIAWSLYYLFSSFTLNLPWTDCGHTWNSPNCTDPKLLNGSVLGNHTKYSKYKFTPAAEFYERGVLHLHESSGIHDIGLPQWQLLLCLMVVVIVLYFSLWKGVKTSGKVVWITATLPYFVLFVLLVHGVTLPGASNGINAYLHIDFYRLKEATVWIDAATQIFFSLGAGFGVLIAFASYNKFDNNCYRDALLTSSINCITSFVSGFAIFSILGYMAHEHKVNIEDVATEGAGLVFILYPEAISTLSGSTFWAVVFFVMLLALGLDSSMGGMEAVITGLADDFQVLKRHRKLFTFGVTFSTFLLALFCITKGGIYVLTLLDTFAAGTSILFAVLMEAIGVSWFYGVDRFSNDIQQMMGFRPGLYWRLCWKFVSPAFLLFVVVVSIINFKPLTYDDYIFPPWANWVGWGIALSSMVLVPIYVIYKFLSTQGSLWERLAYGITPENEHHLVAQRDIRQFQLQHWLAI
# Chain of 5-HT1D (P28565 whole entry): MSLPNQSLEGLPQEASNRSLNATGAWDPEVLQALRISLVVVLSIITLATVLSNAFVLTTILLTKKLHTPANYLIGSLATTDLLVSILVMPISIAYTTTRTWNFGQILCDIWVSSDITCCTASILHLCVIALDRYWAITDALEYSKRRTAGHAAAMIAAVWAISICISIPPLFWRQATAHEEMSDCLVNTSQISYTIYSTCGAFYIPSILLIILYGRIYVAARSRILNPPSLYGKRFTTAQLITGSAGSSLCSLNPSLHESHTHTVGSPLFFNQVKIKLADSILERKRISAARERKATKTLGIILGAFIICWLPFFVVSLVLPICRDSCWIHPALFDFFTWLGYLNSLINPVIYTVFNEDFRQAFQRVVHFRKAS
Structure (SMILES),inhibition of noradrenergic reuptake transporters [1],inhibition at 0.001 µM (5-HT1D),inhibition at 0.002 µM (5-HT6 (h)),inhibition at 0.0003 µM (5-HT4e (h)),inhibition at 0.001 µM (5-HT5A (h)),inhibition at 0.0005 µM (5-HT3 (h)),activity at the serotonin reuptake inhibitor [2],agonist effect (cAMP response) (5-HT7 (h)),pharmacological activity relative to R(+)-isomer [3]
"CCOc1ccccc1OCC1CNCCO1 (racemic) [viloxazine, Viloxazine]",155 nM,18%,6%,16%,15%,18%,17.3 μm,no measurable response,
"CCOc1ccccc1OC[C@@H]1CNCCO1 (single isomer, unassigned) [S(−)-isomer]",,,,,,,,,five times more pharmacologically active than the R(+)-isomer
